This is an account of results in US20130059385A1, “METHODS OF GENERATING PLURIPOTENT STEM CELLS” (THE SCRIPPS RESEARCH INSTITUTE, priority 2010, published 2013).

One test relates to MEF cells. To be noted: cited from earlier work.
Test [1] deals with Neural progenitor cells (NPCs). Conditions: NPC reprogramming, Shi et al. 2008; cited from earlier work.
For test [2], the system named is MEFs transduced with Oct4, Sox2 and Klf4. In words: Reprogramming of MEFs transduced by Oct4, Sox2 and Klf4 (AP-positive / Oct4-GFP-positive colonies). The class given is cell-based, mouse. The source says:
FIG. 1. CHIR99021 promoted the reprogramming of MEFs transduced by Oct4, Sox2 and Klf4. MEFs from 129 strain were transduced with Oct4, Sox2 and Klf4 by retroviruses, and treated the next day with increasing concentrations of CHIR99021 for two week. Three weeks later, AP was detected by staining cells in monolayer (A). […] After 3 weeks of treatment, the GFP positive colonies in each well were counted (B).
Cell Culture and Viral Transduction: MEFs were derived from 12952/SvPasCrlf and ROSA26^+/−/OG2^+/− mice according to the protocol reported on WiCell Research Institute website: “Introduction to human embryonic stem cell culture methods”. ROSA26^+/−/OG2^+/− transgenic mice carry GFP reporter gene under the control of the Oct4 promoter (Oct4-GFP) and the ubiquitously expressed neo/lacZ transgene [Do J T, Scholer H R, Stem Cells, 22:941-949 (2004)]. Animal experiments were performed according to the Animal Protection Guidelines of the Max Planck Institute for Biomolecular Research, Germany. […] MEFs transduced with Oct4/Klf4/Sox2 (1×10^4 cells/well together with 10^5 cells/well CF1 feeders in 6-well plates) were then treated with GSK-3 inhibitor CHIR99021 (Stemgent) for two weeks, and EGFP positive colonies were picked up at the third week after treatment. MEFs transduced with Oct4/Klf4 (1×10^5 cells/well in 6-well plates) were treated with 10 μM CHIR99021 for four weeks, GFP positive colonies were picked up and expanded at the fourth to fifth week after treatment.
Cytochemistry and Immunofluorescence Assay: Alkaline Phosphatase staining was performed according to the manufacturer's protocol using the Alkaline Phosphatase Detection Kit (Millipore). For immunofluorescence assay, cells were fixed in 4% paraformaldehyde for 10 minutes and washed three times with PBS containing 0.1% Triton X-100 (Sigma-Aldrich). The fixed cells were then incubated in blocking buffer, 0.1% Triton X-100 and 10% normal donkey serum (Jackson ImmunoResearch Laboratories Inc) in PBS (Invitrogen/Gibco BRL), for 30 min at room temperature. […]

Test [3] deals with Sox2 and Oct4 expression in MEFs. In words: Real-time PCR of pluripotency gene expression in untransduced MEFs after treatment. To be noted: 10 μM CHIR99021, three days. It counts as cell-based, mouse. The source says: FIG. 2. […] Scale bars, 20μm. […] PCR analysis: […] The primer for viral Klf4 was [NT] and [NT]. The primer for FGF-4 was [NT] and [NT].

As to `Nc1ncn([C@@H]2O[C@H](CO)[C@@H](O)[C@H]2O)c(=O)n1` [5-AZA], the “improvement of reprogramming efficiency” value in the test with MEF cells is recorded as “up to 4 folds”.
Consider `COc1cc2nc(N3CCCN(C)CC3)nc(NC3CCN(Cc4ccccc4)CC3)c2cc1OC` [BIX-01294], for which the “enhancement of reprogramming efficiency” value in test [1] is “over 8 fold”.
Regarding `Cc1c[nH]c(-c2cnc(NCCNc3ccc(C#N)cn3)nc2-c2ccc(Cl)cc2Cl)n1` [CHIR99021], in test [2] (Oct4/Sox2/Klf4-transduced ROSA26+/-/OG2+/- MEFs), the “concentration showing the greatest effects on reprogramming” value is “about 10 μM”. In addition, in test [2] (about 10 μM CHIR99021, treated two weeks, counted after 3 weeks, without compound 0.03-0.08%), the “reprogramming efficiency (GFP-positive colonies) of transduced MEFs” value was 0.2-0.4%. Besides, in test [2] (treated two weeks, AP staining at third week after treatment), the “number of AP-positive mESC-like colonies” value is “significantly increased the number of alkaline phosphase (AP)-positive mESC-like colonies in a dose-dependent manner”. In addition, the “induction of Sox2 and Oct4 expression in MEFs (real-time PCR)” value in test [3] was “did not induce the expression of Sox2 and Oct4”.
